Molecular target: T1, cloned human Kv1.3 potassium channel (Homo sapiens, UniProt P22001)
T1 construct: expressed in transfected cells
Assay: PatchXpress inhibition of cloned human Kv1.3 in CHO cells (Example 6)
Format: cell-based
Conditions: hKv1.3, up to 3000 μM
Description: The objective of this study was to examine the in vitro effects and determine the […] of 3,4-DAP phosphate and the metabolite N-(4-aminopyridin-3-yl) acetamide HCl on the following ion channels: cloned human Kv1.1 potassium channel (encoded by the human KCNA1 gene, expressed in HEK293 cells), cloned human Kv1.2 potassium channel (encoded by the human KCNA2 gene, expressed in HEK293 cells), cloned human Kv1.3 potassium channel (encoded by the human KCNA3 gene, expressed in CHO cells), cloned human Kv1.4 potassium channel (encoded by the human KCNA4 gene, expressed in HEK293 cells), cloned human Kv1.5 potassium channel (encoded by the human KCNA5 gene and expressed in CHO cells), responsible for IKur, ultra-rapid delayed rectifier potassium current.
Chemicals used in solution preparation were purchased from Sigma-Aldrich (St. Louis, Mo.), unless otherwise noted, and were of ACS reagent grade purity or higher. Stock solutions of each test article (100 mM, 30 mM and 1.00 mM 3,4-DAP phosphate and 100 mM N-(4-aminopyridin-3-yl)acetamide) were prepared in sterile water and stored refrigerated. […]
In preparation for a recording session, intracellular solution was loaded into the intracellular compartments of the Sealchip16. […] After establishment of a whole-cell configuration, membrane currents were recorded using dual-channel patch clamp amplifiers in the PatchXpress®. […]

T1 sequence (P22001 whole entry): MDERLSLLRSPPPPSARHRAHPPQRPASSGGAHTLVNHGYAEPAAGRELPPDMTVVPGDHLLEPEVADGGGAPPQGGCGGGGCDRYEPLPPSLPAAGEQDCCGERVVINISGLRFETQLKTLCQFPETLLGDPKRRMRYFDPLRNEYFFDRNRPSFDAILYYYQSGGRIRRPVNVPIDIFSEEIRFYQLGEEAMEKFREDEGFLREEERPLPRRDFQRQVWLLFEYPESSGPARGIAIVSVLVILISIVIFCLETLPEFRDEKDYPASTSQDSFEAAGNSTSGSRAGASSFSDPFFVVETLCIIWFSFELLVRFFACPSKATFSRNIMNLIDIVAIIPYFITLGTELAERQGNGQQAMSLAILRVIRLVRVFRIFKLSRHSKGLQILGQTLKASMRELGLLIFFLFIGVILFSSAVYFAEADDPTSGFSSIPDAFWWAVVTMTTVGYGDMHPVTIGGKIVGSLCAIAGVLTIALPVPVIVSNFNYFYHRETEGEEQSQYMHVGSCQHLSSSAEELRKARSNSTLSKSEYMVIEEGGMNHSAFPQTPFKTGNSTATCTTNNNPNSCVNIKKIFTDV

activity on K+ channel: inactive
activity on K+ channel (listed as N-acetyl metabolite): not active
SMILES: CC(=O)Nc1cnccc1N [3-N-acetyl amifampridine, N-(4-aminopyridin-3-yl)acetamide]

Reference: US11274332B2, “Methods of administering 3,4-diaminopyridine” (SERB SA, priority 2011, dated 2022)
